According to US20220288404A1, “METHODS FOR APPLYING TUMOR TREATING FIELDS IN COMBINATION WITH CANCER TREATING THERAPEUTICS” (THE BOARD OF REGENTS OF THE UNIVERSITY OF TEXAS SYSTEM, priority 2021, published 2022):

Columns and labels:
Format in all cases: cell-based
H157 cells [1] = assay: Clonogenic cell survival assay, H157 cells; conditions: 48 h, CI>1 synergistic
H1299 cells [2] = assay: Clonogenic cell survival assay, H1299 cells; conditions: 48 h, CI>1 synergistic
04.03 cells = assay: Clonogenic cell survival assay, 04.03 cells; conditions: for CI AZD + 2Gy / CI TTFields + 2Gy + AZD / CI TTFields + AZD: CI>1 synergistic; for surviving fraction: agent as shown in figure
Protocol: (§1) Using certain embodiments disclosed herein, TTFields in combination with various inhibitors and/or radiation treatment (IR) were applied to NSCLC cells or pancreatic cancer cells. For example, a predetermined inhibitor at a predetermined concentration was delivered to NSCLC cells or pancreatic cancer cells, and the cells were immediately exposed to TTFields (e.g., 100-250 kHz and 1-20 V/cm v/cm) for about 24, […], or 72 hours. The predetermined concentration was a cell line specific concentration for optimal target cell killing.
(§2) Olaparib was given concomitant with TTFields. Radiation was given 24, 48 or 72 h after the initiation of TTFields and specific agents. […] Values greater than 1.0 are considered as synergistic, that is, greater than the sum of the individual responses. The following formulas were used for calculating CI: SF=Survival Fraction; CI (TTFields)+(2Gy)=(SF2Gy×SFTTFields)/SF2Gy+TTFields; CI(TTFields)+(Olap)=(SFOlap×SFTTFields)/SFOlap+TTFields; CI (2Gy)+(Olap)=(SF2Gy×SFOlap)/SF2Gy+Olap; and CI (TTFields)+(2Gy)+(Olap)=(SF2Gy×SFOlap×SFTTFields)/SFTTFields+2Gy+Olap. […] Based upon the Highest Single Agent […] approach. The calculation for the Combination Index can be found below.
(§3) FIGS. 4 and 5 depict example effects of TTFields, AZD6738, radiation, and a combination thereof on non-small cell lung cancer cells (NSCLC) and pancreatic cancer cell, respectively. In particular, FIGS. 4 and 5 show TTFields exposure synergistically increases the effects of ATR inhibitor AZD6738 on NSLCL cells (FIG. 4) survival and pancreatic cancer cell (FIG. 5) survival. TTFields were used together with ATR inhibitor AZD6738 and radiation (IR). A synergistic effect was observed when AZD6738 and IR were combined with TTFields using the highest single agent (HSA) approach. The following formulas were used for calculating CI: SF=Survival Fraction; CI (TTFields)+(2Gy)=(SF2Gy×SFTTFields)/SF2Gy+TTFields; CI(TTFields)+(AZD)=(SFAZD×SFTTFields)/SFAZD+TTFields; CI (2Gy)+(AZD)=(SF2Gy×SFAZD)/SF2Gy+AZD; and CI (TTFields)+(2Gy)+(AZD)=(SF2Gy×SFAZD×SFTTFields)/SFTTFields+2Gy+AZD.

H157 cells [3] = assay: Clonogenic cell survival assay, H157 cells; conditions: for CI AZD + 2Gy / CI TTFields + 2Gy + AZD / CI TTFields + AZD / CI 5FU + 2Gy / CI TTFields + 5FU / CI TTFields + 5FU + 2Gy: CI>1 synergistic; for surviving fraction: agent as shown in figure
Protocol: as §1, with “killing. Then, the cells were irradiated (at a dose of 2Gy) for less than a minute (e.g., 3.25 Gy/min) and immediately plated for survival.” for “killing.”
as §3
(§4) The following formulas are used for calculating the combination Index: SF=Survival Fraction; CI (TTFields)+(2Gy)=(SF2Gy×SFTTFields)/SF2Gy+TTFields; CI(TTFields)+(Irino)=(SFIrino×SFTTFields)/SFIrino+TTFields; CI (2Gy)+(Irino)=(S2Gy×SFIrino)SF2Gy+Irino; and CI (TTFields)+(2Gy)+(Irino)=(SF2Gy×SFIrino×SFTTFields)/SFTTFields+2Gy+Irino.

Panc-1 cells = assay: Clonogenic cell survival assay, Panc-1 cells; conditions: for CI AZD + 2Gy / CI TTFields + 2Gy + AZD / CI TTFields + AZD: CI>1 synergistic; for surviving fraction: agent as shown in figure
Protocol: as §1, §2, §3, §4

H1299 cells [4] = assay: Clonogenic cell survival assay, H1299 cells; conditions: for CI AZD + 2Gy / CI TTFields + 2Gy + AZD / CI TTFields + AZD / CI 5FU + 2Gy / CI TTFields + 5FU / CI TTFields + 5FU + 2Gy: CI>1 synergistic; for surviving fraction: agent as shown in figure
Protocol: as §1, with “killing. Then, the cells were irradiated (at a dose of 2Gy) for less than a minute (e.g., 3.25 Gy/min) and immediately plated for survival.” for “killing.”
as §3, §4

## C[C@@H]1COCCN1c1cc(C2([S@](C)(=N)=O)CC2)nc(-c2cc[nH]c3nccc2-3)n1 [AZD, Ceralasertib (AZD6738)]
H157 cells [1]
  CI TTFields + AZD: 1.072
H1299 cells [2]
  CI AZD + 2Gy: 1.215
  CI TTFields + AZD: 1.242
04.03 cells
  effect of combinations of TTFields, agent and/or IR on cell survival: synergistic effects
  surviving fraction: significantly reduced
04.03 cells; 24 h
  CI AZD + 2Gy: 1.018
  CI TTFields + 2Gy + AZD: 1.272
  CI TTFields + AZD: 1.049
04.03 cells; 48 h
  CI AZD + 2Gy: 1.158
  CI TTFields + 2Gy + AZD: 2.394
  CI TTFields + AZD: 1.550
04.03 cells; 72 h
  CI AZD + 2Gy: 1.011
  CI TTFields + 2Gy + AZD: 2.674
  CI TTFields + AZD: 1.287
H157 cells [3]
  effect of combinations of TTFields, agent and/or IR on cell survival: synergistic effects
  surviving fraction: significantly reduced
H157 cells [3]; 24 h
  CI AZD + 2Gy: 1.498
  CI TTFields + 2Gy + AZD: 2.430
  CI TTFields + AZD: 1.048
H157 cells [3]; 48 h
  CI AZD + 2Gy: 1.292
  CI TTFields + 2Gy + AZD: 2.062
H157 cells [3]; 72 h
  CI AZD + 2Gy: 3.115
  CI TTFields + 2Gy + AZD: 4.874
  CI TTFields + AZD: 1.036
Panc-1 cells
  effect of combinations of TTFields, agent and/or IR on cell survival: synergistic effects
  surviving fraction: significantly reduced
Panc-1 cells; 24 h
  CI AZD + 2Gy: 0.894
  CI TTFields + 2Gy + AZD: 1.068
  CI TTFields + AZD: 1.088
Panc-1 cells; 48 h
  CI AZD + 2Gy: 0.879
  CI TTFields + 2Gy + AZD: 1.153
  CI TTFields + AZD: 0.970
Panc-1 cells; 72 h
  CI AZD + 2Gy: 1.030
  CI TTFields + 2Gy + AZD: 1.514
  CI TTFields + AZD: 1.072
H1299 cells [4]
  effect of combinations of TTFields, agent and/or IR on cell survival: synergistic effects
  surviving fraction: significantly reduced
H1299 cells [4]; 24 h
  CI AZD + 2Gy: 1.127
  CI TTFields + 2Gy + AZD: 3.553
  CI TTFields + AZD: 1.070
H1299 cells [4]; 48 h
  CI TTFields + 2Gy + AZD: 2.535
H1299 cells [4]; 72 h
  CI AZD + 2Gy: 1.143
  CI TTFields + 2Gy + AZD: 2.206
  CI TTFields + AZD: 1.092

## O=c1[nH]cc(F)c(=O)[nH]1 [5FU, 5-Fluorouracil]
H157 cells [1]
  CI TTFields + 5FU: 1.252
H1299 cells [2]
  CI TTFields + 5FU + 2Gy: 1.263
04.03 cells
  effect of combinations of TTFields, agent and/or IR on cell survival: synergistic effects
  surviving fraction: significantly reduced
H157 cells [3]
  effect of combinations of TTFields, agent and/or IR on cell survival: synergistic effects
  surviving fraction: significantly reduced
H157 cells [3]; 24 h
  CI 5FU + 2Gy: 0.894
  CI TTFields + 5FU: 1.559
  CI TTFields + 5FU + 2Gy: 1.433
H157 cells [3]; 48 h
  CI 5FU + 2Gy: 0.962
  CI TTFields + 5FU + 2Gy: 1.783
H157 cells [3]; 72 h
  CI 5FU + 2Gy: 1.125
  CI TTFields + 5FU: 1.106
  CI TTFields + 5FU + 2Gy: 1.658
Panc-1 cells
  effect of combinations of TTFields, agent and/or IR on cell survival: synergistic effects
  surviving fraction: significantly reduced
H1299 cells [4]
  effect of combinations of TTFields, agent and/or IR on cell survival: synergistic effects
  surviving fraction: significantly reduced
H1299 cells [4]; 24 h
  CI 5FU + 2Gy: 1.254
  CI TTFields + 5FU: 1.352
  CI TTFields + 5FU + 2Gy: 1.762
H1299 cells [4]; 48 h
  CI 5FU + 2Gy: 0.950
  CI TTFields + 5FU: 1.348
H1299 cells [4]; 72 h
  CI TTFields + 5FU: 1.326
  CI TTFields + 5FU + 2Gy: 1.345
